Test results: ChEMBL document CHEMBL1158888, “New bioactive rosigenin analogues and aromatic polyketide metabolites from the freshwater aquatic fungus Massarina tunicata” (2003)
Activity calls are given as the source filed them. The calls are words filed in the database; no cut-off is given here.

How the values were obtained:
[1] = tested on: Bacillus subtilis; experiment: Antimicrobial activity against Bacillus subtilis ATCC 6051 at 200 ug/disk by standard disk assay
[2] = tested on: Bacillus subtilis; experiment: Antimicrobial activity against Bacillus subtilis ATCC 6051 at 200 ug/ml by standard disk assay; assay type: functional; settings: read-out: IZ
[3] = tested on: Staphylococcus aureus; experiment: Antimicrobial activity against Staphylococcus aureus ATCC 29213 at 200 ug/ml by standard disk assay; assay type: functional; settings: read-out: IZ

Row | SMILES | Activity [1] | zone of inhibition at 200 µg/mL [2] [mm] | zone of inhibition at 200 µg/mL [3] [mm]
1 | C=C1OC(=O)[C@]2([C@H](C)CCC(=O)[C@@H]2O)[C@H]1O | inactive |  | 
2 | C=C1OC(=O)[C@]2([C@H](C)C=CC(=O)[C@@H]2O)[C@H]1O [MASSARIGENIN C] |  | 9 | 
3 | C[C@H]1CC(=O)c2c(coc2-c2c(O)ccc3c2OC(C)(C)C=C3)[C@@H]1O [MASSARININ B] |  | 23 | 12
4 | C#C[C@H](O)COc1ccc(C(=O)O)cc1 |  | 15 | 
5 | C=C1OC(=O)[C@]2([C@H](C)C=CC(=O)[C@H]2O)[C@H]1O [MASSARIGENIN D] |  | 14 | 
6 | COc1c(C)cc(O)c(C(=O)c2c(O)ccc3c2OC(C)(C)C=C3)c1C=O [MASSARININ A] |  | 17 | 7
7 | C=C1OC(=O)[C@]2([C@H](C)C=C[C@H](O)[C@@H]2O)[C@@H]1O [MASSARIGENIN A] |  | 11 | 
